Some test systems named below: NCI-H226 lung; NCI-H23 lung; OVCAR-8 ovarian; SNB-19 CNS; SNB-75 CNS; SW-620 colon; UACC-62 melanoma.
Holding throughout (experiment): NCI tumour cell line growth inhibition, 48 h

The structures appear in SMILES notation.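 Values below derive from 48-hour exposures of cells grown in 96-well plates, with endpoints linearly interpolated between the two concentrations bracketing the appropriate inhibition level. At the TGI there is no net growth.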

For the compound `O=C(CSCC(=O)N/N=C\c1ccccc1F)N/N=C\c1ccccc1F`, the TGI with NCI-H226 lung, with NCI-H23 lung, with OVCAR-8 ovarian, with SNB-19 CNS, with SNB-75 CNS and in the experiment with SW-620 colon was more than 100 µM throughout. This compound had a TGI with UACC-62 melanoma of more than 100 µM.
For the compound `Cc1ccc(N=C2SC(=NN(C)C)SC2=Nc2ccc(C)cc2)cc1`, the TGI in the experiment with NCI-H226 lung, in the experiment on NCI-H23 lung, in the experiment with OVCAR-8 ovarian, with SNB-19 CNS, with SNB-75 CNS and in the experiment with SW-620 colon was more than 100 µM each time. This compound also returned a TGI in the experiment with UACC-62 melanoma of more than 100 µM.
As to `COc1ccc(Cn2c3ccc([N+](=O)[O-])cc3c(=O)n2Cc2ccccn2)cc1`, the TGI with NCI-H226 lung, in the experiment with NCI-H23 lung, in the experiment with OVCAR-8 ovarian, in the experiment with SNB-19 CNS, in the experiment on SNB-75 CNS and with SW-620 colon was more than 100 µM in each case. Moreover, the TGI in the experiment with UACC-62 melanoma was more than 100 µM.
With `O=NN1C(c2ccccc2)CCCC1c1ccccc1` (stereo unspecified), the TGI in the experiment with NCI-H226 lung was more than 100 µM; in the experiment on NCI-H23 lung, more than 100 µM; with OVCAR-8 ovarian it was more than 100 µM; with SNB-19 CNS, more than 100 µM; in the experiment on SNB-75 CNS it was more than 77.6 µM; with SW-620 colon it was more than 100 µM. In addition, in the experiment with UACC-62 melanoma, the TGI was more than 100 µM.
`S=C(N/N=C(\C(=N/NC(=S)N1CCCCC1)c1ccccn1)c1ccccn1)N1CCCCC1`: the TGI in the experiment with NCI-H226 lung, in the experiment on NCI-H23 lung, with OVCAR-8 ovarian, in the experiment on SNB-19 CNS, in the experiment with SNB-75 CNS and in the experiment on SW-620 colon was more than 100 µM each time. This compound came in with a TGI with UACC-62 melanoma of more than 100 µM.
As to `Nc1ccccc1OCCCOc1ccccc1N`, the TGI in the experiment with NCI-H226 lung, in the experiment with NCI-H23 lung, with OVCAR-8 ovarian, with SNB-19 CNS, in the experiment on SNB-75 CNS and in the experiment with SW-620 colon was more than 100 µM each time. Also, in the experiment with UACC-62 melanoma, the TGI is more than 100 µM.
`CCN(CC)c1ccc2cc(C(N)=O)c(=Nc3ccc(F)cc3)oc2c1`: the TGI was more than 100 µM in the experiment on NCI-H226 lung; more than 100 µM with NCI-H23 lung; more than 100 µM with OVCAR-8 ovarian; more than 100 µM with SNB-19 CNS; 47 µM in the experiment on SNB-75 CNS; more than 100 µM in the experiment with SW-620 colon. For the same compound, in the experiment on UACC-62 melanoma, the TGI was more than 100 µM.
Take `O=C1C=C(O)c2c(O)ccc(O)c2C1=O`: the TGI with NCI-H226 lung, in the experiment with NCI-H23 lung, with OVCAR-8 ovarian, with SNB-19 CNS, in the experiment on SNB-75 CNS and with SW-620 colon was more than 100 µM each time. In addition, in the experiment on UACC-62 melanoma, the TGI was more than 100 µM.
For the compound `O=C(c1ccccc1O)c1cc(-c2ncc3c(=O)c4ccccc4oc3n2)c(-c2ccccc2O)[nH]c1=O`, the TGI in the experiment with NCI-H226 lung was 32.7 µM; in the experiment on NCI-H23 lung, 50.1 µM; in the experiment with OVCAR-8 ovarian it was more than 90.2 µM; in the experiment on SNB-19 CNS it was more than 87.5 µM; in the experiment with SNB-75 CNS, more than 100 µM; in the experiment with SW-620 colon, more than 77.1 µM. For the same compound, the TGI with UACC-62 melanoma worked out at 51.4 µM.
For `COc1ccc(CCCN2c3ccccc3Sc3ccccc32)cc1`, the TGI in the experiment with NCI-H226 lung, in the experiment on NCI-H23 lung, in the experiment on OVCAR-8 ovarian, in the experiment with SNB-19 CNS, in the experiment with SNB-75 CNS and with SW-620 colon was more than 100 µM in each case. The compound further yielded a TGI in the experiment on UACC-62 melanoma of more than 100 µM.
For the compound `Cc1ccc(C#CS(=O)(=O)C(F)(F)F)cc1`, the TGI in the experiment on NCI-H226 lung, with NCI-H23 lung, in the experiment on OVCAR-8 ovarian, with SNB-19 CNS, in the experiment on SNB-75 CNS and with SW-620 colon was more than 100 µM each time. This compound also displayed a TGI with UACC-62 melanoma of more than 100 µM.
For `CC(=O)c1[nH]c(Nc2ccc(C)cc2)c(C(=S)Nc2ccccc2)c1N`, the TGI in the experiment on NCI-H226 lung came out at 32.4 µM; in the experiment on NCI-H23 lung, 42.8 µM; in the experiment on OVCAR-8 ovarian it was 39.4 µM; in the experiment with SNB-19 CNS, 42.9 µM; in the experiment with SNB-75 CNS, 50.3 µM; with SW-620 colon, 96.9 µM. This compound also registered a TGI in the experiment on UACC-62 melanoma of 31.7 µM.
For `COc1ccc(C2=C(Cl)c3cc(OC)c(OC)cc3C2)cc1OC`, the TGI with NCI-H226 lung, with NCI-H23 lung, in the experiment with OVCAR-8 ovarian, in the experiment on SNB-19 CNS, in the experiment on SNB-75 CNS and in the experiment with SW-620 colon was more than 100 µM throughout. The compound also gave a TGI in the experiment on UACC-62 melanoma of more than 100 µM.
As to `O=C1CCCCN1C(=O)c1ccc([N+](=O)[O-])cc1`, the TGI in the experiment with NCI-H226 lung, in the experiment on NCI-H23 lung, with OVCAR-8 ovarian, in the experiment with SNB-19 CNS, in the experiment on SNB-75 CNS and in the experiment on SW-620 colon was more than 100 µM in each case. In addition, the TGI in the experiment on UACC-62 melanoma was more than 100 µM.
As for `C[N+]1([O-])[C@H]2CC(OC(=O)[C@H](CO)c3ccccc3)C[C@H]1[C@H]1O[C@H]12` (stereo partly specified), the TGI in the experiment with NCI-H226 lung, with NCI-H23 lung, with OVCAR-8 ovarian, in the experiment on SNB-19 CNS, with SNB-75 CNS and in the experiment on SW-620 colon was more than 100 µM throughout. The same compound displayed a TGI with UACC-62 melanoma of more than 100 µM.
`COC12C=CC(CC1)C(C)(C)C2OS(C)(=O)=O` (stereo unspecified): the TGI in the experiment with NCI-H226 lung, in the experiment with NCI-H23 lung, in the experiment with OVCAR-8 ovarian, in the experiment on SNB-19 CNS, in the experiment on SNB-75 CNS and in the experiment with SW-620 colon was more than 100 µM in each case. For the same compound, the TGI with UACC-62 melanoma was more than 100 µM.
With `O=C(/C=C/c1ccccc1)Oc1cccc(Br)c1`, the TGI with NCI-H226 lung, in the experiment with NCI-H23 lung, in the experiment on OVCAR-8 ovarian, in the experiment with SNB-19 CNS, in the experiment with SNB-75 CNS and with SW-620 colon was more than 100 µM throughout. Moreover, the TGI in the experiment with UACC-62 melanoma is more than 100 µM.
As to `CN1C=COC1N=C1CCCCC1` (stereo unspecified), the TGI in the experiment on NCI-H226 lung was more than 100 µM; in the experiment on NCI-H23 lung it was more than 100 µM; in the experiment with OVCAR-8 ovarian, more than 100 µM; in the experiment on SNB-19 CNS, 12 µM; in the experiment on SNB-75 CNS it was more than 100 µM; in the experiment with SW-620 colon, 12.1 µM. The TGI in the experiment on UACC-62 melanoma was more than 100 µM.

(Values after PubChem BioAssay (NCI).)
